Legend:
[1] = molecular target: T1, interaction between Supt4h and NGN (subunit of Supt5h) (Homo sapiens, UniProt O00267+P63272); assay: Split Gaussia luciferase complementation assay (M2-8 Luciferase); assay type: cell-based; settings: M2-8 cells
T1 construct: expressed in transfected cells
Method: A. Split Gaussia Luciferase Complementation Assay […]
i: pNBR-X1-Supt4-Gluc1 and pNEBR-X1-NGN-Gluc2
The HA-Supt4h and Flag-NGN fragments are amplified by PCR using the plasmid pHA-Supt4h-YC and pFlag-NGN-YN and sub-cloned individually into pcDNA3.1-Gluc1 and pcDNA3.1-Gluc2 (described in “A highly sensitive protein-protein interaction assay based on Gaussia luciferase” published at Nat Methods. 2006 December; 3(12):977-9. Epub 2006 Nov. 12). Then HA-Supt4h-Gluc1 and Flag-NGN-Gluc2 are amplified by PCR and inserted to pNEBR-X1-Hygro (New England BioLabs), which contain RheoSwitch responsive element under the control of RheoSwitch ligand. […]
ii: pNEBR-X1-Supt4h-G1-NGN-G2
PCR products containing the sequence from 5XRE to polyA in pNEBR-X1-NGN-G2 are inserted to pNEBR-X1-Supt4h-G1 at Pcil site to generate Supt4h-G1 and NGN-G2 bidirectional under their own RheoSwitch responsive element and polyA in the same plasmid. […]
b. Stable Cloned Cell Line i: 293-R1 is a cloned cell line which is engineered to constitutively express RSL1 receptor/activator by transfecting HEK 293 cells with pNEBR-R1 plasmid (New England BioLabs) and selected with blasticidin. […]
ii: M2-8 is a cloned 293-R1 cell which can inducibly express pNEBR-X1-Supt4h-G1-NGN-G2 by addition of RSL1. Two point mutations ([…] and M110I) are introduced to the GL1 and GL2 for better stability according to “A high-throughput cell-based Gaussia luciferase reporter assay for identifying modulators of fibulin-3 secretion” published in J Biomol Screen. 2013 July; 18(6):647-58. The cell line is selected by hygromycin. […]
c. Cell Culture and Transfection Condition
All the HEK-293 cells and derivative clones are maintained in DMEM containing 10% FBS plus corresponding antibiotics (250 μg/ml hygromycin B, 10 μg/ml blasticidin or both) at 37° C., 5% CO2. All the transfections are done by using Lipofectamine 2000 (Invitrogen) according to the manufacturer's instructions. […]
d. Bioluminescence Assay from Cell Lysates
Plasmids harboring the Gluc1 and Gluc2 are co-transfected in a 1:1 ratio into 293-R1 cells plated on tissue culture treated 24-well plates using Lipofectamine 2000 according to the manufacturer's instructions. For stable M2-8 cells, the cells are directly plated into 96-well or 384-well white plates. Twenty-four hours later, RheoSwitch ligand with or without test compound is added to the cells for induction/drug treatment. After 24 hr, the cells are washed with PBS and the plate was stored at −20° C. overnight. Lysis buffer [30 mM Tris-HCl (pH 8.0) 5 mM NaCl, 0.1% Triton X-100] with 10 μg/ml native coelenterazine (Nanolight Technology) is then added to the cells at room temperature for one hour in the dark. After shaking for about 1 min, 40 μl of cell lysate are transferred to a white 96-well plate. For M2-8 in white micro plate, no transfer is needed. Signal intensities (integrated 100 ms) were read on Tecan Infinite M200 or M1000.
The split Gaussia luciferase complementation assay measures the interaction between Sup4h and NGN. NGN is the subunit of Supt5h that binds to Supt4h.

[2] = system: Lymphoblastoid cells (GM14044); assay: LBC cell viability (Cell Titer-Glo); assay type: cell-based, human; settings: at the concentration of IC20, 3-day compound treatment
Method: Cell viability was determined by Cell Titer-Glo reagent (Promega, PRG9243). After 3-day compound treatment, 15 μl of cell suspension was taken out from plate and incubated with 10 μl of CTG reagent. The values of reaction mixture were detected by Tecan.

[3] = system: mutant HTT; assay: Mutant HTT assay in lymphoblastoid cells (LBC), Western blot; assay type: cell-based, human; settings: read-out: LBC IC20 (nM) mHTT, 3 days compound treatment
Method: (§1) B. Mutant and Wild-Type HTT Assay in Lymphoblastoid Cells (LBC)
(§2) a. Cell Culturing and Compound Treatment
(§3) Lymphoblastoid cells derived from a Huntington's disease patient with 250 CAG repeats in the mutant HTT allele (GM14044 from Coriell Institute) were cultured in RPMI 1640 (Corning Cellgro, 10-040-CV) containing fetal bovine serum (Atlanta Biologicals, S11150). 4×10^5 cells were seeded on a 24-well plate and incubated with testing compound for 3 days. The cell suspension was then transferred to a 1.5 ml Eppendorf tube. Cells were collected by centrifugation and washed once with PBS. After all liquid was removed, the cell pellet was placed at −80° C. for at least 10 minutes. Lysis buffer [30 mM Tris-HCl (pH 8.0), 5 mM NaCl, 0.1% Triton X-100] with the proteinase inhibitor cocktail (P8340 from Sigma-Aldrich) was then added to the cells. Following centrifugation (14 k rpm for 15 min at 4° C.), the supernatant was collected. The protein concentrations were determined by BCA assay (Pierce, ThermoFisher).
(§4) Equal amounts of protein were loaded onto 4-12% gel (Invitrogen, WG1403A). After electrophoresis, the gels were transferred to nitrocellulose membranes by wet transfer at 72V for 3 hrs. […] The protein levels of mutant HTT, wild-type HTT, TBP, and tubulin were determined by immunoblotting with anti-polyQ specific antibody (clone MW1), anti-Huntingtin antibody (Abcam, ab45169), anti-TBP antibody (Sigma, T1827) and anti-alpha tubulin antibody (Sigma, T9026). Blots were imaged on a Li-Cor Odyssey infrared imager. The band intensities were determined by Li-Cor Odyssey software.

[4] = system: wild-type HTT; assay: Wild-type HTT assay in lymphoblastoid cells (LBC), Western blot; assay type: cell-based, human; settings: 3 days compound treatment, read-out: LBC IC20 (nM) wtHTT
Method: as §1, §2, §3, §4

[5] = system: M2-8 cells; assay: M2-8 Cell viability Assay; assay type: cell-based; settings: at the concentration of 1000 nM

| SMILES | IC50 [1] | LBC viability at IC20 [2] | IC20 [3] | IC20 [4] | M2-8 Cell viability [5] |
| --- | --- | --- | --- | --- | --- |
| COc1cccc(CN[C@@H]2CCCc3c2[nH]c2ccc(Br)cc32)c1 [Compound 24, (R)-6-bromo-N-(3-methoxybenzyl)-2,3,4,9-tetrahydro-1H-carbazol-1-amine] | ≤ 100 nM | * (cell viability is greater than 60% at the concentration of IC20) | 101 to 300 nM | > 1000 nM | + (cell viability is greater than 50% at the concentration of 1000 nM) |
| Brc1ccc2[nH]c3c(c2c1)CCC[C@H]3NCc1cccc2ccccc12 [Compound 19, (R)-6-bromo-N-(naphthalen-1-ylmethyl)-2,3,4,9-tetrahydro-1H-carbazol-1-amine] | ≤ 100 nM | * (cell viability is greater than 60% at the concentration of IC20) | 101 to 300 nM | > 1000 nM | + (cell viability is greater than 50% at the concentration of 1000 nM) |
| Oc1ccc(-c2ccc3[nH]c4c(c3c2)CCC[C@H]4NCc2ccccc2)cc1 [Compound 10, (R)-4-(1-(benzylamino)-2,3,4,9-tetrahydro-1H-carbazol-6-yl)phenol] | > 1000 nM | – | – | – | + (cell viability is greater than 50% at the concentration of 1000 nM) |
| Cn1cncc1CN[C@@H]1CCCc2c1[nH]c1ccc(Br)cc21 [Compound 35, (R)-6-bromo-N-((1-methyl-1H-imidazol-5-yl)methyl)-2,3,4,9-tetrahydro-1H-carbazol-1-amine] | 301 to 1000 nM | – | – | – | + (cell viability is greater than 50% at the concentration of 1000 nM) |
| CC1(C)Cc2c([nH]c3ccc(Br)cc23)[C@H](NCc2ccccc2)C1 [Compound 17] | > 1000 nM | – | – | – | + (cell viability is greater than 50% at the concentration of 1000 nM) |
| c1ccc(CN[C@@H]2CCCc3c2[nH]c2ccc(-c4ccccc4)cc32)cc1 [Compound 8, (R)—N-benzyl-6-phenyl-2,3,4,9-tetrahydro-1H-carbazol-1-amine] | > 1000 nM | – | – | – | + (cell viability is greater than 50% at the concentration of 1000 nM) |
| N[C@@H]1CCCc2c1[nH]c1ccc(Br)cc21 [Compound 15] | > 1000 nM | – | – | – | + (cell viability is greater than 50% at the concentration of 1000 nM) |
| OCc1ccc(CN[C@@H]2CCCc3c2[nH]c2ccc(Br)nc32)s1 [Compound 67] | ≤ 100 nM | – | – | – | + (cell viability is greater than 50% at the concentration of 1000 nM) |
| CC(C)(OCCO)c1ccc(CN[C@@H]2CCCc3c2[nH]c2ccc(Br)cc32)cc1 [Compound 56, (R)-2-((2-(4-(((6-bromo-2,3,4,9-tetrahydro-1H-carbazol-1-yl)amino)methyl)phenyl)propan-2-yl)oxy)ethan-1-ol] | ≤ 100 nM | – | – | – | + (cell viability is greater than 50% at the concentration of 1000 nM) |
| CC(=O)c1ccc2[nH]c3c(c2c1)CCC[C@H]3NCc1ccccc1 [Compound 46, (R)-1-(1-(benzylamino)-2,3,4,9-tetrahydro-1H-carbazol-6-yl)ethan-1-one] | 301 to 1000 nM | – | – | – | + (cell viability is greater than 50% at the concentration of 1000 nM) |
| Oc1cccc(-c2ccc3[nH]c4c(c3c2)CCC[C@H]4NCc2ccccc2)c1 [Compound 9, (R)-3-(1-(benzylamino)-2,3,4,9-tetrahydro-1H-carbazol-6-yl)phenol] | 301 to 1000 nM | – | – | – | + (cell viability is greater than 50% at the concentration of 1000 nM) |
| C(#CC1CC1)c1ccc2[nH]c3c(c2c1)CCC[C@H]3NCc1ccccc1 [Compound 34, (R)—N-benzyl-6-(cyclopropylethynyl)-2,3,4,9-tetrahydro-1H-carbazol-1-amine] | > 1000 nM | – | – | – | + (cell viability is greater than 50% at the concentration of 1000 nM) |
| C=C(C)c1ccc(CN[C@@H]2CCCc3c2[nH]c2ccc(Br)cc32)cc1 [Compound 47, (R)-6-bromo-N-(4-(prop-1-en-2-yl)benzyl)-2,3,4,9-tetrahydro-1H-carbazol-1-amine] | 101 to 300 nM | – | – | – | + (cell viability is greater than 50% at the concentration of 1000 nM) |
| c1ccc(CN[C@@H]2CCCc3c2[nH]c2ccccc32)cc1 [Compound 4, (R)—N-benzyl-2,3,4,9-tetrahydro-1H-carbazol-1-amine] | > 1000 nM | – | – | – | + (cell viability is greater than 50% at the concentration of 1000 nM) |
| CC1(C)CCC(NCc2ccccc2)c2[nH]c3ccc(Br)cc3c21 (stereo not drawn) [Compound 16] | > 1000 nM | – | – | – | + (cell viability is greater than 50% at the concentration of 1000 nM) |
| CC(C)(O)c1ccc(C(CF)N[C@@H]2CCCc3c2[nH]c2ccc(Br)cc32)cc1 (single isomer, unassigned) [Compound 54] | ≤ 100 nM | – | – | – | + (cell viability is greater than 50% at the concentration of 1000 nM) |
| Brc1ccc2[nH]c3c(c2c1)CCC[C@H]3NCc1ccc(I)cc1 [Compound 40, (R)-6-bromo-N-(4-iodobenzyl)-2,3,4,9-tetrahydro-1H-carbazol-1-amine] | 101 to 300 nM | – | – | – | + (cell viability is greater than 50% at the concentration of 1000 nM) |
| Brc1ccc2[nH]c3c(c2c1)CCC[C@H]3NCc1ccc(N2CCCC2)cc1 [Compound 22, (R)-6-bromo-N-(4-(pyrrolidin-1-yl)benzyl)-2,3,4,9-tetrahydro-1H-carbazol-1-amine] | 101 to 300 nM | – | – | – | + (cell viability is greater than 50% at the concentration of 1000 nM) |
| OCCOCc1ccc(CN[C@@H]2CCCc3c2[nH]c2ccc(Br)nc32)cc1 [Compound 64] | 101 to 300 nM | – | – | – | + (cell viability is greater than 50% at the concentration of 1000 nM) |
| O=[N+]([O-])c1ccc(CN[C@@H]2CCCc3c2[nH]c2ccc(Br)cc32)cc1 [Compound 30, (R)-6-bromo-N-(4-nitrobenzyl)-2,3,4,9-tetrahydro-1H-carbazol-1-amine] | 101 to 300 nM | – | – | – | + (cell viability is greater than 50% at the concentration of 1000 nM) |
| c1ccc(CN[C@@H]2CCCc3c2[nH]c2ccc(-c4cn[nH]c4)cc32)cc1 [Compound 11, (R)—N-benzyl-6-(1H-pyrazol-4-yl)-2,3,4,9-tetrahydro-1H-carbazol-1-amine] | > 1000 nM | – | – | – | + (cell viability is greater than 50% at the concentration of 1000 nM) |

— patent publication US20220062233A1 (The Board of Trustees of the Leland Stanford Junior …, priority 2018, published 2022)
